Assay results published in the NIST ThermoML archive (doi:10.1021/je0340809).
Numbers after ± are expanded uncertainties.

Experiment: xn = mol fraction of the nth substance listed
Conditions: 101.3 kPa, Liquid

O=C1CCCN1 [2-pyrrolidinone] + O
Conditions | mass density [kg/m3] | speed of sound [m/s] | viscosity [mPa·s]
298.15 K, x2 = 0.0549 | 1106.53 ± 1.2 | 1637.8 ± 6.6 | 13.02 ± 0.25
298.15 K, x2 = 0.1506 | 1105.77 ± 1.2 | 1641.1 ± 6.6 | 12.29 ± 0.24
298.15 K, x2 = 0.2552 | 1104.43 ± 1.2 | 1662 ± 6.7 | 11.77 ± 0.23
298.15 K, x2 = 0.35 | 1102.41 ± 1.1 | 1691.1 ± 6.8 | 11.32 ± 0.22
298.15 K, x2 = 0.4496 | 1099.53 ± 1.1 | 1711.7 ± 6.9 | 10.63 ± 0.21
298.15 K, x2 = 0.5 | 1097.71 ± 1.1 | 1717.9 ± 6.9 | 10.13 ± 0.2
298.15 K, x2 = 0.5566 | 1095.2 ± 1.1 | 1723.5 ± 6.9 | 9.408 ± 0.19
298.15 K, x2 = 0.6422 | 1089.78 ± 1.1 | 1728.3 ± 6.9 | 8.014 ± 0.16
298.15 K, x2 = 0.7532 | 1077.07 ± 0.98 | 1730.9 ± 6.9 | 5.772 ± 0.13
298.15 K, x2 = 0.8516 | 1056.03 ± 0.85 | 1715.4 ± 6.9 | 3.645 ± 0.084
298.15 K, x2 = 0.8714 | 1050.24 ± 0.81 | 1704.6 ± 6.8 | 3.231 ± 0.075
298.15 K, x2 = 0.8856 | 1045.71 ± 0.79 | 1694.1 ± 6.8 | 2.94 ± 0.068
298.15 K, x2 = 0.9 | 1040.8 ± 0.76 | 1681 ± 6.8 | 2.651 ± 0.062
298.15 K, x2 = 0.9249 | 1031.48 ± 0.7 | 1650.9 ± 6.7 | 2.171 ± 0.051
298.15 K, x2 = 0.9369 | 1026.61 ± 0.67 | 1632.7 ± 6.6 | 1.948 ± 0.046
298.15 K, x2 = 0.9526 | 1019.88 ± 0.62 | 1605.5 ± 6.5 | 1.667 ± 0.04
298.15 K, x2 = 0.9651 | 1014.21 ± 0.59 | 1580.7 ± 6.4 | 1.451 ± 0.035
298.15 K, x2 = 0.9748 | 1009.64 ± 0.56 | 1559.8 ± 6.4 | 1.29 ± 0.032
298.15 K, x2 = 0.9906 | 1001.87 ± 0.51 | 1522.6 ± 6.3 | 1.036 ± 0.026
308.15 K, x2 = 0.0549 | 1098.69 ± 1.1 | 1609.2 ± 6.5 | 8.624 ± 0.18
308.15 K, x2 = 0.1506 | 1097.66 ± 1.1 | 1618.7 ± 6.6 | 8.126 ± 0.17
308.15 K, x2 = 0.2552 | 1095.98 ± 1.1 | 1635.9 ± 6.6 | 7.761 ± 0.16
308.15 K, x2 = 0.35 | 1093.81 ± 1.1 | 1657.3 ± 6.7 | 7.452 ± 0.16
308.15 K, x2 = 0.4496 | 1090.94 ± 1.1 | 1679 ± 6.8 | 6.988 ± 0.15
308.15 K, x2 = 0.5 | 1089.17 ± 1.1 | 1688.1 ± 6.8 | 6.657 ± 0.14
308.15 K, x2 = 0.5566 | 1086.76 ± 1 | 1696.7 ± 6.8 | 6.188 ± 0.14
308.15 K, x2 = 0.6422 | 1081.57 ± 1 | 1706.4 ± 6.8 | 5.289 ± 0.12
308.15 K, x2 = 0.7532 | 1069.46 ± 0.93 | 1711.6 ± 6.9 | 3.853 ± 0.09
308.15 K, x2 = 0.8516 | 1049.57 ± 0.81 | 1695.1 ± 6.8 | 2.489 ± 0.059
308.15 K, x2 = 0.8714 | 1044.11 ± 0.78 | 1686.1 ± 6.8 | 2.224 ± 0.053
308.15 K, x2 = 0.8856 | 1039.85 ± 0.75 | 1677.9 ± 6.8 | 2.038 ± 0.049
308.15 K, x2 = 0.9 | 1035.22 ± 0.72 | 1667.7 ± 6.7 | 1.852 ± 0.045
308.15 K, x2 = 0.9249 | 1026.46 ± 0.67 | 1645 ± 6.6 | 1.544 ± 0.038
308.15 K, x2 = 0.9369 | 1021.88 ± 0.64 | 1631.3 ± 6.6 | 1.401 ± 0.034
308.15 K, x2 = 0.9526 | 1015.55 ± 0.6 | 1610.1 ± 6.5 | 1.22 ± 0.03
308.15 K, x2 = 0.9651 | 1010.22 ± 0.56 | 1590.4 ± 6.5 | 1.082 ± 0.027
308.15 K, x2 = 0.9748 | 1005.91 ± 0.54 | 1573.1 ± 6.4 | 0.977 ± 0.025
308.15 K, x2 = 0.9906 | 995.75 ± 5 | 1540.9 ± 6.3 | 0.812 ± 0.021
318.15 K, x2 = 0.0549 | 1090.54 ± 1.1 | 1570 ± 6.4 | 6.104 ± 0.13
318.15 K, x2 = 0.1506 | 1089.51 ± 1.1 | 1576.7 ± 6.4 | 5.778 ± 0.13
318.15 K, x2 = 0.2552 | 1087.87 ± 1.1 | 1589.9 ± 6.5 | 5.543 ± 0.12
318.15 K, x2 = 0.35 | 1085.69 ± 1 | – | 5.344 ± 0.12
318.15 K, x2 = 0.4496 | 1082.75 ± 1 | – | 5.034 ± 0.11
318.15 K, x2 = 0.5 | 1080.94 ± 1 | – | 4.807 ± 0.11
318.15 K, x2 = 0.5566 | 1078.51 ± 0.99 | 1650.3 ± 6.7 | 4.48 ± 0.1
318.15 K, x2 = 0.6422 | 1073.38 ± 0.96 | 1663.9 ± 6.7 | 3.845 ± 0.088
318.15 K, x2 = 0.7532 | 1061.72 ± 0.89 | 1678.2 ± 6.8 | 2.823 ± 0.066
318.15 K, x2 = 0.8516 | 1042.81 ± 0.77 | 1675 ± 6.7 | 1.852 ± 0.044
318.15 K, x2 = 0.8714 | 1037.63 ± 0.73 | 1669.5 ± 6.7 | 1.663 ± 0.04
318.15 K, x2 = 0.8856 | 1033.59 ± 0.71 | 1664 ± 6.7 | 1.53 ± 0.037
318.15 K, x2 = 0.9 | 1029.21 ± 0.68 | 1656.8 ± 6.7 | 1.398 ± 0.034
318.15 K, x2 = 0.9249 | 1020.9 ± 0.63 | 1639.6 ± 6.6 | 1.179 ± 0.029
318.15 K, x2 = 0.9369 | 1016.57 ± 0.6 | 1628.8 ± 6.6 | 1.078 ± 0.027
318.15 K, x2 = 0.9526 | 1010.57 ± 0.56 | 1611.8 ± 6.5 | 0.95 ± 0.024
318.15 K, x2 = 0.9651 | 1005.52 ± 0.53 | 1595.5 ± 6.5 | 0.851 ± 0.022
318.15 K, x2 = 0.9748 | 1001.44 ± 0.51 | 1581.1 ± 6.4 | 0.778 ± 0.02
318.15 K, x2 = 0.9906 | 995.2 ± 0.53 | 1553.7 ± 6.4 | 0.662 ± 0.018
328.15 K, x2 = 0.0549 | 1082.33 ± 1 | 1556 ± 6.4 | 4.562 ± 0.1
328.15 K, x2 = 0.1506 | 1081.2 ± 1 | 1562.4 ± 6.4 | 4.323 ± 0.098
328.15 K, x2 = 0.2552 | 1079.48 ± 1 | 1574.8 ± 6.4 | 4.147 ± 0.094
328.15 K, x2 = 0.35 | 1077.27 ± 0.98 | 1592.4 ± 6.5 | 4 ± 0.091
328.15 K, x2 = 0.4496 | 1074.29 ± 0.97 | 1612.3 ± 6.6 | 3.772 ± 0.086
328.15 K, x2 = 0.5 | 1072.48 ± 0.95 | 1621.7 ± 6.6 | 3.605 ± 0.083
328.15 K, x2 = 0.5566 | 1070.03 ± 0.94 | 1631.3 ± 6.6 | 3.364 ± 0.077
328.15 K, x2 = 0.6422 | 1064.97 ± 0.91 | 1644.8 ± 6.7 | 2.895 ± 0.067
328.15 K, x2 = 0.7532 | 1053.71 ± 0.84 | 1659.9 ± 6.7 | 2.143 ± 0.05
328.15 K, x2 = 0.8516 | 1035.74 ± 0.72 | 1660.2 ± 6.7 | 1.427 ± 0.035
328.15 K, x2 = 0.8714 | 1030.84 ± 0.69 | 1656.2 ± 6.7 | 1.288 ± 0.032
328.15 K, x2 = 0.8856 | 1027.01 ± 0.67 | 1652 ± 6.7 | 1.191 ± 0.029
328.15 K, x2 = 0.9 | 1022.85 ± 0.64 | 1646.3 ± 6.7 | 1.095 ± 0.027
328.15 K, x2 = 0.9249 | 1014.98 ± 0.59 | 1632.4 ± 6.6 | 0.932 ± 0.024
328.15 K, x2 = 0.9369 | 1010.86 ± 0.57 | 1623.5 ± 6.6 | 0.858 ± 0.022
328.15 K, x2 = 0.9526 | 1005.16 ± 0.53 | 1609.4 ± 6.5 | 0.764 ± 0.02
328.15 K, x2 = 0.9651 | 1000.35 ± 0.5 | 1595.8 ± 6.5 | 0.69 ± 0.018
328.15 K, x2 = 0.9748 | 996.455 ± 0.52 | 1583.8 ± 6.5 | 0.637 ± 0.017
328.15 K, x2 = 0.9906 | 989.833 ± 0.56 | 1560.8 ± 6.4 | 0.551 ± 0.015
338.15 K, x2 = 0.0549 | 1070.16 ± 0.94 | 1526.1 ± 6.3 | 3.37 ± 0.079
338.15 K, x2 = 0.1506 | 1069.05 ± 0.94 | 1532.8 ± 6.3 | 3.198 ± 0.075
338.15 K, x2 = 0.2552 | 1067.4 ± 0.93 | 1545 ± 6.3 | 3.076 ± 0.072
338.15 K, x2 = 0.35 | 1065.29 ± 0.91 | 1562 ± 6.4 | 2.973 ± 0.07
338.15 K, x2 = 0.4496 | 1062.48 ± 0.89 | 1581.5 ± 6.5 | 2.81 ± 0.066
338.15 K, x2 = 0.5 | 1060.76 ± 0.88 | 1590.8 ± 6.5 | 2.69 ± 0.063
338.15 K, x2 = 0.5566 | 1058.45 ± 0.87 | 1600.7 ± 6.5 | 2.516 ± 0.06
338.15 K, x2 = 0.6422 | 1053.71 ± 0.84 | 1615.2 ± 6.6 | 2.177 ± 0.052
338.15 K, x2 = 0.7532 | 1043.28 ± 0.77 | 1632.8 ± 6.6 | 1.63 ± 0.04
338.15 K, x2 = 0.8516 | 1026.75 ± 0.67 | 1638.6 ± 6.6 | 1.11 ± 0.028
338.15 K, x2 = 0.8714 | 1022.24 ± 0.64 | 1636.4 ± 6.6 | 1.009 ± 0.025
338.15 K, x2 = 0.8856 | 1018.73 ± 0.62 | 1633.7 ± 6.6 | 0.938 ± 0.024
338.15 K, x2 = 0.9 | 1014.9 ± 0.59 | 1629.8 ± 6.6 | 0.867 ± 0.022
338.15 K, x2 = 0.9249 | 1007.65 ± 0.55 | 1619.7 ± 6.6 | 0.749 ± 0.02
338.15 K, x2 = 0.9369 | 1003.86 ± 0.53 | 1613 ± 6.5 | 0.695 ± 0.018
338.15 K, x2 = 0.9526 | 998.592 ± 0.51 | 1602.2 ± 6.5 | 0.627 ± 0.017
338.15 K, x2 = 0.9651 | 994.147 ± 0.54 | 1591.6 ± 6.5 | 0.574 ± 0.016
338.15 K, x2 = 0.9748 | 990.543 ± 0.56 | 1582 ± 6.5 | 0.535 ± 0.015
338.15 K, x2 = 0.9906 | 984.343 ± 0.6 | 1563.7 ± 6.4 | 0.473 ± 0.013
